Reference: US11517512B2, “Personal care compositions comprising zinc : usnic acid complexes and methods of use” (Colgate-Palmolive Company, priority 2017, dated 2022)
≈ marks a conversion by molar mass, not a printed value.

Legend:
Escherichia coli = experiment: Minimal inhibitory concentration, broth micro dilution method; assay type: cell-based; conditions: overnight incubation, OD 610 nm, stock in DMSO, read-out: MIC E. Coli (G−)
Protocol: (§1) Minimal inhibition concentration (MIC) is the lowest concentration of an antimicrobial agent that can inhibit the visible growth of a microorganism after overnight incubation. The MIC values of zinc:usnate complex and usnic acid against Staphylococcus aureus and Escherichia coli were determined with the broth micro dilution method. Briefly, 0.1% stock solutions were prepared in dimethyl sulfoxide (DMSO). Using a 96-well microtitre plate, the corresponding testing concentrations are 500, 250, 125, 62, 31, 16, 8, 4, 2, 1, 0.5 and 0.2 ppm, respectively. The optic density readings at 610 nm for each well were used to assess the level of bacterial growth.

Staphylococcus aureus = experiment: as above; assay type: cell-based; conditions: overnight incubation, OD 610 nm, stock in DMSO, read-out: MIC S. aureus (G+)
Protocol: as §1

[1] = DI water at 35° C.; Jin et al., J Solution Chem., 2013; cited from earlier work

CC(=O)c1c(O)c(C)c(O)c2c1OC1=CC(=O)C(C(C)=O)C(=O)C12C (stereo not drawn) [Usnic Acid, usnic acid]
MIC (Escherichia coli): > 125 µg/mL
MIC (Staphylococcus aureus): 4 µg/mL (≈ 11.6 µM)
solubility [1]: 6.3 ppm
